{"source": "paper PMC11727701", "about": "(Drug Design, Development and Therapy, 2025)", "biological_target": "NaV1.5 (Homo sapiens, UniProt Q14524)", "sequence (Q14524 whole entry)": "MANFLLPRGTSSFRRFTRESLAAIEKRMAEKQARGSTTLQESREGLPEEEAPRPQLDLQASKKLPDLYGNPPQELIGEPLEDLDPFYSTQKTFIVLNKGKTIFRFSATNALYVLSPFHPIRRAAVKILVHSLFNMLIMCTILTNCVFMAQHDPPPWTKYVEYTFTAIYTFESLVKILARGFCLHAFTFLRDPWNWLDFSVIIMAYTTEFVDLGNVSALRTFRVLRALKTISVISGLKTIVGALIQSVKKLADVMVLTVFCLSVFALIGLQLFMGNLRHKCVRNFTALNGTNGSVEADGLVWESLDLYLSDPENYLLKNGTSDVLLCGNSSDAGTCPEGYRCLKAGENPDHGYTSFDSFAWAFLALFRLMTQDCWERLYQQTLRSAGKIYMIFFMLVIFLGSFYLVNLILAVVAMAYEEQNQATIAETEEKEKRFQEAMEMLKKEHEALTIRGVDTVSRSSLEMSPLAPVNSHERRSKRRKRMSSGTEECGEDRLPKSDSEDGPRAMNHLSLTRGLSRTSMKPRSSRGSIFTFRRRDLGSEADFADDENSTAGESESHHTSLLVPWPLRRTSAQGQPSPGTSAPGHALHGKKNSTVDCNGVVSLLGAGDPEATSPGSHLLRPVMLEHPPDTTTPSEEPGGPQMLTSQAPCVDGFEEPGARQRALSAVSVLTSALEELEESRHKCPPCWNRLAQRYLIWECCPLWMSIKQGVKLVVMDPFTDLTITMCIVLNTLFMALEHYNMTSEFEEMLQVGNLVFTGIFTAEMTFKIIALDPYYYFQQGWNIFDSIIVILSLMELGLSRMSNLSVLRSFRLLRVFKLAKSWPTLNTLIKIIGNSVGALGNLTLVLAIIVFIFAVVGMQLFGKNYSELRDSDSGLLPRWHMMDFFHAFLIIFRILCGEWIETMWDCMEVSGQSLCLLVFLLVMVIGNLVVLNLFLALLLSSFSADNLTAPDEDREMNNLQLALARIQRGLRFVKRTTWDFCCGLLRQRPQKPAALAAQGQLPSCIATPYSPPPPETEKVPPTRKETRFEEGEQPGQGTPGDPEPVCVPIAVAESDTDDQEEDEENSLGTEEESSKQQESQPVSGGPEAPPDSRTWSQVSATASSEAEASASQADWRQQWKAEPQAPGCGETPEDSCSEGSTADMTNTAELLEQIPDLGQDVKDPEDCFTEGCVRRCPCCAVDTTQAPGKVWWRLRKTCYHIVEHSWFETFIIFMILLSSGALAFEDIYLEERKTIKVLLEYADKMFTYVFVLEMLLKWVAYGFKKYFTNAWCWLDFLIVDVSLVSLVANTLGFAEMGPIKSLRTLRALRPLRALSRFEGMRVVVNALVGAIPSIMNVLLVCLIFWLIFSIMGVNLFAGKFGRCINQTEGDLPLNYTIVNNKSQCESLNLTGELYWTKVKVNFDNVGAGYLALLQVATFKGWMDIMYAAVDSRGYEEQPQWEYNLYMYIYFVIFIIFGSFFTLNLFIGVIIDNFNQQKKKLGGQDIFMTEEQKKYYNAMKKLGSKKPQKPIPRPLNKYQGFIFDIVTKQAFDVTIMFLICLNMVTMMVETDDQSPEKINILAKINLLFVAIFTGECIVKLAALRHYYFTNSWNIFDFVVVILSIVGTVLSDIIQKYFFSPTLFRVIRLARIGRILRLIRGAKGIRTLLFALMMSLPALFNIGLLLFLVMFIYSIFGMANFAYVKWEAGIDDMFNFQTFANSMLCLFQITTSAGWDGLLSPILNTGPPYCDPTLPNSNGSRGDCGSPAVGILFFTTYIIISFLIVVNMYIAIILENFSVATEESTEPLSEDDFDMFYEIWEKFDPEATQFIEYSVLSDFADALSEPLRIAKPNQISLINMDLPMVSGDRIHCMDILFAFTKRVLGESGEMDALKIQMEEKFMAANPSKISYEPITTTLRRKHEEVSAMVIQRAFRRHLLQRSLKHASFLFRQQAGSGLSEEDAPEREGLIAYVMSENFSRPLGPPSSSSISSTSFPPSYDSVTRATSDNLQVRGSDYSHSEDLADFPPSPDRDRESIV", "assay": "manual whole-cell patch clamp in CHL cells stably expressing SCN5A", "format": "cell-based"}
{"smiles": "CCCCCCCCCCCC(=O)O", "note": "[LA, lauric acid]", "values": [{"measurement": "IC50", "value": "27.4 ± 12.8", "unit": "µM"}]}
